The target in one data set is T1, TRPC5 channels (Homo sapiens, UniProt Q9UL62).
T1 construct: expressed in transfected cells; host or cells: HEK293
T1 sequence (Q9UL62 1-973): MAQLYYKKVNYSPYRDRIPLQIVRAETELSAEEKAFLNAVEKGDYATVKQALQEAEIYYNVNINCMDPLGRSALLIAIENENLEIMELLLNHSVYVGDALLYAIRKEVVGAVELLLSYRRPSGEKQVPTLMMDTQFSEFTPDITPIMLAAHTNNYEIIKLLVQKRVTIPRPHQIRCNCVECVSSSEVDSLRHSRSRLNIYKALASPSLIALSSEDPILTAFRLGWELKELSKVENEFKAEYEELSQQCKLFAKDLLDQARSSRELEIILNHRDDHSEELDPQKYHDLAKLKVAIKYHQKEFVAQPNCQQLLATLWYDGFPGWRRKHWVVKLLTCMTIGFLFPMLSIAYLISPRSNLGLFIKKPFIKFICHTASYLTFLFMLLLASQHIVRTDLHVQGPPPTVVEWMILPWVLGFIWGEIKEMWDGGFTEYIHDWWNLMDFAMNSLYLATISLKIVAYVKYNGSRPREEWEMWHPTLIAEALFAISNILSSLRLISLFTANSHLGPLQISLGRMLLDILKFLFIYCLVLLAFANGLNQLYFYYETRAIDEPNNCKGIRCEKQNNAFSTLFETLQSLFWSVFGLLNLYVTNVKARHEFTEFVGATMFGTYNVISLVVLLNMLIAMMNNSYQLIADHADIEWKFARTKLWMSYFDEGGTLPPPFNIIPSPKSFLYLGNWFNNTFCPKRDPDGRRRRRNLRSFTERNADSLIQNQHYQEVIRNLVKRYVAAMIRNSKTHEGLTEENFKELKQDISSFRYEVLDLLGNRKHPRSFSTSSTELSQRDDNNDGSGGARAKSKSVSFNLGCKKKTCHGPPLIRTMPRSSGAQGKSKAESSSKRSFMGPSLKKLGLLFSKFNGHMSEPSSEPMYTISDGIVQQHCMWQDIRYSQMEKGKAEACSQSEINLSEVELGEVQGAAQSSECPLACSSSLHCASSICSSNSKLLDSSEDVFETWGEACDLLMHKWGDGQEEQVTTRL
The data set can be described thus: TRP Family FLIPR Assay, TRPC5. The following applies: HEK293 cells. Format: cell-based. On the procedure:
(§1) The compound of Example 5 was tested for selectivity against a panel of Human TRP family ion channels in a TRP Family FLIPR Assay as described below. • 1. TRPC3 channels (human TRPC3 variant 1 gene, expressed in HEK293 cells). • 2. TRPC4 channels (human TRPC4 gene, expressed in HEK293 cells). • 3. TRPC5 channels (human TRPC5 gene, expressed in HEK293 cells). • 4. TRPC6 channels (human TRPC6 gene, expressed in HEK293 cells). • 5. TRPM2 channels (human TRPM2 gene, transiently expressed in HEK293 cells). • 6. TRPM3 channels (human TRPM3 gene, transiently expressed in HEK293 cells). • 7. TRPM4 channels (human TRPM4 gene, expressed in CHO cells). • 8. […]
(§2) Data acquisition was performed via the FLIPR Control software supplied with the FLIPR System (MDS-AT) and data was analyzed using Microsoft Excel (Microsoft Corp., Redmond, WA) or GraphPad Prism. […]
(§3) [formula] where Base is the response at low concentrations of test article, Max is the maximum response at high concentrations, xhalf the EC50, or IC50, the concentration of test article producing either half-maximal activation or inhibition, and rate is the Hill coefficient. […] No assumptions about the fit parameters was made; the fit parameters were determined by the algorithm.
(§4) The effect of each test article was evaluated at eight (8) concentrations: 0.003, 0.01, 0.03, 0.1, 0.3, 1, 3 and 10 μM, n≤4 wells/concentration). […]

The target in the next data set is T2, TRPA1 channels (Homo sapiens, UniProt O75762).
T2 construct: expressed in transfected cells; host or cells: CHO
T2 sequence (O75762 whole entry): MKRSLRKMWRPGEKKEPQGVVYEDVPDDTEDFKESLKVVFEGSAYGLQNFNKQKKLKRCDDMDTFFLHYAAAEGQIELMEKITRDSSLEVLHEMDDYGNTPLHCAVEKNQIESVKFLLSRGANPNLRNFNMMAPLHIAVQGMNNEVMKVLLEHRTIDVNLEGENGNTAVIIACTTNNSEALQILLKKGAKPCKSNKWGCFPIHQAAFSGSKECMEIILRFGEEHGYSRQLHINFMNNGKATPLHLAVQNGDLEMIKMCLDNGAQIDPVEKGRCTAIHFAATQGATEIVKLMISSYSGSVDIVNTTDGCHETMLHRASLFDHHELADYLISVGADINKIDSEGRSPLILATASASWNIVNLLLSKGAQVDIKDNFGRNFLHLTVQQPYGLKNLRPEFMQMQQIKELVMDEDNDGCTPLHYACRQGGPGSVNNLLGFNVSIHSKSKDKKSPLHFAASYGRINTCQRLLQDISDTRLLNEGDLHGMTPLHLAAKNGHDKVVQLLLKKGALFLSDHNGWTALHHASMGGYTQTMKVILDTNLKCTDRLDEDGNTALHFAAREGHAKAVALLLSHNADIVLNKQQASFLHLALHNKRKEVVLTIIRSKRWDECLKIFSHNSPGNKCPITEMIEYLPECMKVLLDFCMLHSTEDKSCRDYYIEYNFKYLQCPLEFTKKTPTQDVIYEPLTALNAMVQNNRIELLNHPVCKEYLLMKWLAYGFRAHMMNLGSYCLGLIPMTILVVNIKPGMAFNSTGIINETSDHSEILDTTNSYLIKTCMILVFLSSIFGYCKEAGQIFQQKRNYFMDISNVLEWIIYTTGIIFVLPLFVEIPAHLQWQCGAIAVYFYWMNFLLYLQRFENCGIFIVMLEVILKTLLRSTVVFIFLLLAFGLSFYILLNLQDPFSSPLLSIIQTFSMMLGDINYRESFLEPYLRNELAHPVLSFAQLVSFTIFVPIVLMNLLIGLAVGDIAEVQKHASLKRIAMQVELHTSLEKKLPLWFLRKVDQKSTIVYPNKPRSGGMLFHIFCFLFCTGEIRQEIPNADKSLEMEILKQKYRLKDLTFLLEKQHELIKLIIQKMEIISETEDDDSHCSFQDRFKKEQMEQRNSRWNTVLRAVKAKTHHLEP
The data set can be described thus: TRP Family FLIPR Assay, TRPA1. Format: cell-based. The note with it: CHO cells. On the procedure: as §1, §2, §3, §4

The subject of a further data set is Hepatocytes. Kind of data set: Hepatocytes predicted clearance, mouse.

The source of these data is patent US12391683B2, “Therapeutic compounds and methods” (Actio Biosciences, Inc., priority 2022, dated 2025).

A word on the EC50: it is the concentration at which the effect is half-maximal. What is called IC50 is the concentration that gives 50% inhibition.

Take `CC(C)(O)c1cnc(N2C[C@@]3(CC[C@@H](F)[C@](C)(Cn4cnc5ccc(C#N)cc54)C3)OC2=O)cn1` (single isomer, unassigned) [Example 5]: the EC50 was greater than 10 µM at TRPC5 channels (agonist mode, vs EMAX of (−)-Englerin A 30 μM, read-out: EC50 hTRPC5) and greater than 10 µM on TRPA1 channels (agonist mode, vs EMAX of mustard oil 600 μM, read-out: EC50 hTRPA1). Further, the IC50 is greater than 10 µM on TRPC5 channels (antagonist mode, activated with 0.5 μM (−)-Englerin A, 0.003-10 μM, read-out: IC50 hTRPC5) and greater than 10 µM at TRPA1 channels (antagonist mode, activated with mustard oil 80 μM, 0.003-10 μM, read-out: IC50 hTRPA1). Moreover, the “Hepatocytes predicted clearance in mouse” value in the data set on Hepatocytes was 0.77 L/h/kg.
